The record followed here is publication PMC7031302, “Design and synthesis of new energy restriction mimetic agents: Potent anti-tumor activities of hybrid motifs of aminothiazoles and coumarins” (Scientific Reports, 2020).

Assay [1] concerns HT-29. Kind of assay: MTT cell viability, HT-29. Format: cell-based, Human. The conditions noted are these: 72 h, MTT assay, mean ± SD (n = 6), read-out: half-maximal inhibitory concentration (IC50) HT-29. On the procedure:
(§1) The potential cytotoxicity of 24 candidate compounds was initially evaluated at a single concentration level (5 μM). Then a full dose-response curve was plotted for each compound against different colorectal cancer cell lines (HCT116 and HT-29) by MTT assay after 72 h treatments. 4-hydroxycoumarin, OSU-CG5, and OSU-CG12 were used as positive controls. […] Compounds 9b, 9c, 9f, 9i, 11b, and 11c were selected for further studies to determine the full dose-response survival curves using different concentrations (0.1–20 µM) against CRC cell lines and normal fibroblast cell line (F180) at different time points (Fig. 2A–2F and supplementary material Page S63 and S64).
Human colorectal carcinoma cell lines (HCT116) and (HT-29) were obtained from the European Collection of Cell Cultures (ECACC, UK). The cell lines were cultured in Roswell Park Memorial Institute medium (RPMI-1640, Sigma-Aldrich-St. Louis, MO, USA) supplemented with 10% fetal bovine serum (Sigma-Aldrich-St. Louis, MO, USA) and 1% penicillin/streptomycin (Sigma-Aldrich- Louis, MO, USA). F180 cell line (Human Normal Fibroblast), was kindly given by professor Ekkehard Dikomey (University Cancer Center, Hamburg University, Hamburg, Germany) and were cultured in Dulbecco’s Modified Eagle’s medium (DMEM, Sigma-Aldrich-St. Louis, MO, USA) supplemented with 10% fetal bovine serum (Sigma-Aldrich-St. Louis, MO, USA) and 1% penicillin/streptomycin (Sigma-Aldrich- Louis, MO, USA). All cell incubations were done at 37 °C in a humidified atmosphere of 5% CO2.
Cell viability was assessed using, 3-(4,5-dimethylthiazol-2-yl)-2,5-diphenyltetrazolium bromide (MTT) assay as previously described. In summary, cancer cell lines or F180 were seeded in complete medium at the density of 3 × 10^3/well and 5 × 10^3/well respectively in 96 well flat-bottom plates. After 24 h, cells were incubated with the candidate compounds at the indicated concentration for (24, 48 or 72 h). DMSO was used as vehicle control and 4-Hydroxycoumarin was purchased from (Sigma-Aldrich, St. Louis, MO, USA) and Cisplatin from Hospira UK Ltd. At the end of treatment, the media were aspirated from each well and incubated with 200 µL of MTT tetrazolium dye (Sigma-Aldrich, St. Louis, MO, USA) at a final concentration of 0.5 mg/ml for 2 h at 37 °C. The reduced MTT crystals were solubilized in 200 µl/well of DMSO and the absorbance was measured at 570 nm using a microplate reader (Thermo-Scientific, Vantaa, Finland).
For orientation: Tetrazolium dyes change colour on reduction, which living cells bring about.

The test system of assay [2] is HT-29. In words: ROS-Glo H2O2 assay, HT-29. Format: cell-based, Human. As to conditions: HT-29, 6 h incubation. The text has this: According to previous studies, ERMAs inhibited glucose utilization in cancer cells[13],[19]. Therefore, we investigated glucose uptake (Fig. 5A) upon treatment with 9b and 9f in HT-29 and HCT116 cells at different concentrations based on the IC50 of each compound. […] This effect is known to result in the accumulation of reactive oxygen species (ROS) and could play a role in glucose deprivation-induced cytotoxicity and oxidative stress in cancer cells. […] The observed increase in ROS levels could lead to oxidative stress and extensive cell death in the absence of NADPH detoxification.
NADPH/NADP+ and ROS concentrations were measured using the NADP/NADPH-Glo Assay Kit (Promega, Madison, WI, USA) and ROS-Glo H2O2 Assay (Promega, Madison, WI, USA), respectively, based on the manufacturer instructions. In NADPH/NADP+ assay, CRC cells were seeded into a 96-well flat-bottomed plate and incubated overnight. On the following day, cells were treated with the testing compound or vehicle for 48 h. At the endpoint of treatment, the media were aspirated and replaced with 60 µl PBS/well, then cells were lysed in 60 µl base solution with 1% dodecyl (trimethyl) ammonium bromide (Sigma-Aldrich-St. Louis, MO, USA). […] Luminescence was measured after 30 minutes using Varioskan Flash multimode reader (Thermo Scientific). […] Luminescence was measured after 20 min incubation at room temperature.

The test system of assay [3] is HT-29. Kind of assay: Western blot analysis, HT-29. Type of assay: cell-based, Human. The conditions noted are these: for expression of LC3A-II and LC3B-II: HT-29 (CRC cell lines); for expression of LC3A-II and LC3B-II / p-mTOR and p-p70S6K levels: 72 h; for AMPK activation through phosphorylation / Akt phosphorylation / PARP cleavage: HT-29, 72 h. As for the experimental part: Based on this, the energy restriction mediated anticancer activity of the new coumarin tagged aminothiazole derivatives was investigated. The expression levels of PARP, p-Akt, Akt, p-AMPK, AMPK, β-TrCP, LC3A/B-I, LC3A/B-II, caspase-3, cyclin D1, and Bcl-2 proteins were determined by Western blot analysis after 72 h treatment of HT-29 and HCT116 at different concentrations based on the IC50 values of each compound (Fig. 3A,B). […] Moreover, the treatment with 9b and 9f induced caspase 3/7 activation, which was detected by caspase 3/7 activity assay and confirmed by Western blot. The activation of caspases was significant in 9b in both cell lines and significant with 9f in HCT116 cells only and minimal in HT-29 cells (Fig. 3C,D). On the other hand, both 9b and 9f induced dose-dependent proteolytic processing of PARP. […] Besides, the protein expression level of the anti-apoptotic protein, Bcl-2, was reduced in HCT116 upon treatment with both compounds.
Following 72 h of treatment, cells were lysed and the extracted proteins were quantified using DC protein assay kit (Bio-Rad, Hercules, CA, USA) following the manufacturer’s instructions. Proteins were resolved on 8% or 12% SDS-poly-acrylamide gels, then transferred onto a nitrocellulose membrane using a semi-dry transfer cell. The membranes were blocked in TBS-T containing 5% non-fat milk for 1 h and incubated overnight at 4 °C overnight with indicated primary antibodies (Cell Signaling Technologies, Beverly, MA, USA) and then incubated with goat anti-mouse or anti-rabbit secondary antibody (Cell Signaling Technologies, Beverly, MA, USA) for 1 h at room temperature. Detection was done using chemiluminescence substrate (Bio-Rad, Hercules, CA, USA). β-actin (Cell Signaling Technologies, Beverly, MA, USA) was used as a loading control.
The blots were captured with ChemiDoc Imaging System (Bio-Rad, Hercules, CA, USA) and bands were visualized with the Image Lab v5.2.1 software (Bio-Rad, Hercules, CA, USA).
For orientation: A western blot detects proteins with antibodies after separation by electrophoresis.

In assay [4] the test system is normal fibroblast cell line (F180). Kind of assay: MTT cell viability, normal fibroblasts F180. Format: cell-based. As to conditions: Homo sapiens, read-out: IC50 on normal cells. As for the experimental part: as §1
Human colorectal carcinoma cell lines (HCT116) and (HT-29) were obtained from the European Collection of Cell Cultures (ECACC, UK). The cell lines were cultured in Roswell Park Memorial Institute medium (RPMI-1640, Sigma-Aldrich-St. Louis, MO, USA) supplemented with 10% fetal bovine serum (Sigma-Aldrich-St. Louis, MO, USA) and 1% penicillin/streptomycin (Sigma-Aldrich- Louis, MO, USA). […]
Cell viability was assessed using, 3-(4,5-dimethylthiazol-2-yl)-2,5-diphenyltetrazolium bromide (MTT) assay as previously described. […] The reduced MTT crystals were solubilized in 200 µl/well of DMSO and the absorbance was measured at 570 nm using a microplate reader (Thermo-Scientific, Vantaa, Finland).

SMILES strings stand for the structures. Read-outs that look alike come from different tables or passages of the source.

In the case of `Cc1cc(=O)oc2cc(Nc3nc(-c4ccc(Br)cc4)cs3)ccc12` [Compound 9b, 7-(4-(4-Bromophenyl)thiazol-2-ylamino)-4-methyl-2H-chromen-2-one], in the assay with HT-29 [1], the IC50 was found to be 380 ± 44 nM. In addition, in the assay with HT-29 [1] (Homo sapiens, HT-29, 72 h), the IC50 stood at 530 nM. In the assay with HT-29 [2], the “generation of hydrogen peroxide (H2O2) and ROS” value was “significantly increased”. Also, in the assay on HT-29 [3], the “expression of LC3A-II and LC3B-II” value was “induced the expression of LC3A-II and LC3B-II”; the “AMPK activation through phosphorylation” value is on record as “enhancement of AMPK activation”; the Akt phosphorylation entry is on record as “inhibition of Akt phosphorylation”; the PARP cleavage result is on record as “induced PARP cleavage”. Besides, the “p-mTOR and p-p70S6K levels” value in the assay on HT-29 [3] (HT-29, 0.5 µM) was “initial increase”. Also, in the assay with HT-29 [3] (HT-29, higher concentrations), the “p-mTOR and p-p70S6K levels” value is “decrease”.

For `Cc1cc(=O)oc2cc(Nc3nc(-c4cccc([N+](=O)[O-])c4)cs3)ccc12` [Compound 9f, 4-Methyl-7-(4-(3-Nitrophenyl)thiazol-2-ylamino)-2H-chromen-2-one], the IC50 in the assay with HT-29 [1] came out at 3960 ± 506 nM. The IC50 in the assay on HT-29 [1] (Homo sapiens, HT-29, 72 h) came to 2560 nM. In addition, in assay [4], the IC50 was 7970 nM. Also, in the assay on HT-29 [3], the “expression of LC3A-II and LC3B-II” value was “induced the expression of LC3A-II and LC3B-II”; the “AMPK activation through phosphorylation” value is reported as “enhancement of AMPK activation”; the Akt phosphorylation result is reported as “inhibition of Akt phosphorylation”; the PARP cleavage entry is recorded as “PARP cleavage only in HT-29 cells at the highest tested dose”. For the same compound, the “p-mTOR and p-p70S6K levels” value in the assay with HT-29 [3] (HT-29, higher concentrations) is given as “decrease”.
